Experimental findings from a melting point compilation (Tetko et al.; mined from patent text by program, amines drawn as free bases though some values may be those of a salt) are described below.

Structures are written as SMILES.

What is called melting point is the temperature, or range, at which the solid turns liquid. Turning to `CCCN(CCC)C(=O)c1cc(C(=O)N[C@@H](Cc2cc(F)cc(F)c2)[C@H](O)CNC2(c3cc(CN(C)C)ccn3)CC2)cc(-c2ncco2)c1`, the melting point is 70 to 72 °C.
Then `Fc1ccc2[nH]cc(C3=CCN(CC4COc5ccc6[nH]c(C(F)(F)F)nc6c5O4)CC3)c2c1` (configuration not stated), with 236 to 238 °C; and `CCOC(=O)C(Cc1ccc(OC)cc1SCc1ccc(OC)cc1)(CC(C)C)C(=O)OCC`, with 59 to 60.5 °C; and `Cc1cccc(-c2cnn(-c3ccnc(-c4ccc(CN5CCOCC5)cc4)c3)c2)n1`, with 128 °C.
As for `CCOC(=O)C1=CC(=O)C2(C(=O)c3ccc(OC)cc3)OC2O1` (configuration not stated), the figure is 96 °C; as for `CC1=CC(COC(c2ccccc2)(c2ccccc2)c2ccccc2)O[C@H]1c1coc2c(N)ncnc12` (some centres not stated), 128 to 132 °C; as for `O=S(=O)(c1ccccc1)N1CCC(=C(c2ccc(F)cc2)c2ccc(F)cc2)CC1`, 90 to 92.5 °C.
As for `CCOc1cc(COc2nn(Cc3ccccc3)cc2CO)ccc1OCc1nc(-c2ccco2)oc1C`, the melting point was 137 to 138 °C.
Then `CCn1cc(C(=O)O)c(=O)c2cnc(N3CCN(c4ccccc4)CC3)nc21`, with 247 to 248 °C.
As to `CCS(=O)(=O)Nc1cc(-n2nc3n(c2=O)CCS3)c(F)cc1C#N`, the melting point was 209 to 211 °C.
For `COCCOc1cc(N(C)S(=O)(=O)c2ccccn2)c2[nH]c(C3=N[C@@H](CO)CS3)cc2c1`, the melting point was 147 °C.
As for `CCOC(=O)COc1ccc2nc(CC)cc(OCc3ccc(-c4ccccc4-c4nnn(C(c5ccccc5)(c5ccccc5)c5ccccc5)n4)cc3)c2n1`, the figure is 146 to 150 °C; as for `CN(C)CCCOc1ccc(-c2nnc(CSCCOc3ccccc3)o2)cn1`, 69 to 70 °C.
As for `CCOC(=O)C(C(=O)OCC)N1CC(N2C(=O)c3ccccc3C2=O)C1=O` (configuration not stated), the figure is 149 to 150 °C; as for `COc1ccc(NC(=O)c2ccc(F)c(F)c2)cc1N`, 148 to 151 °C; as for `CCCCCCCC(=O)Nc1cc(Cc2c(Cl)cccc2Cl)nc(Nc2ccc(C#N)cc2)n1`, 135 to 137 °C.
Then `Cn1c(-c2ccc(Cl)cc2)nc2cc(CN3CCN(C(c4ccccc4)c4ccccc4)CC3)ccc21`, with 198 °C; and `CCOc1ccc(-c2c(O)c3ccc(Cl)cc3[nH]c2=O)cc1`, with over 320 °C.
`CCCCN1CCC(C(=O)NO)(S(=O)(=O)c2ccc(OC)cc2)CC1`: the melting point came out at 75 °C.
Then `O=[N+]([O-])c1cnn2c1NCCC2`, with 251 to 252 °C.
Compound `Cc1ccc(S(=O)(=O)OCC(O)Cc2c(Cl)cc3c(c2O)CCC3)cc1` (configuration not stated) showed a melting point of 125 to 127 °C.
In turn, `COc1ccc(CCNc2nccc(-c3cccc(NC(=O)CCN(C)C)c3)n2)cc1OC` displayed a melting point of 107 to 108 °C.
Then `CCCCOc1nc(N)c2nc(OC)n(CCCBr)c2n1`, with 200 to 201 °C; and `Nc1ccccc1Sc1ncc[nH]1`, with 135 to 137 °C.
On to `COc1cc(C(F)(F)F)cc(Cl)c1Oc1ccc2ccc(O)cc2c1`, for which the melting point is 130 °C.
Then `c1ccn(Nc2ccncc2)c1`, with 150 °C.
Then `COc1nc(NC(=O)NS(=O)(=O)c2ccccc2C)nc(N(C)C)n1`, with 194 to 198 °C; and `Cn1nccc1-c1ccc(-c2cnc3[nH]cc(C(=O)C(C)(C)C)c3n2)cc1`, with 257 to 258 °C; and `CC(=O)C(=CNN1C=CC=NC1c1ccncc1)C(C)=O` (configuration not stated), with 182 to 183 °C.
As for `COc1cc(-c2c(Cl)c(CN3C(=O)CCC3=O)nc3sc4c(c23)CCNC4)ccc1OC(C)C`, the figure is 175 to 176 °C; as for `CN(C=O)c1ccc(C2OC(C)(C)N=C2c2ccccc2)cc1` (configuration not stated), 104 to 105 °C; as for `NS(=O)(=O)c1cccc2c1C(Cl)=CC2`, 100 to 101 °C.
With `COC(=O)c1cc(O)cc(OC)c1`, the melting point was in the range of 85 to 86 °C.
Then `CS(=O)(=O)NC[C@@H]1CN(c2ccc(N3CCC(=CC#N)CC3)c(F)c2)C(=O)O1`, with 235 to 237 °C; and `CS(=O)(=O)c1cc(Cl)c2[nH]cc(CC(N)C(=O)O)c2c1` (configuration not stated), with 292 to 294 °C.
Compound `Cc1ccc(C)n1-c1ccc2ccc3c([nH]c(=O)c(=O)n3CC(=O)NCc3ccccc3)c2c1` displayed a melting point of over 290 °C.
As for `CC(C)(C)OC(=O)NCCC(=O)NCc1cccc2c1C(=O)N(C1CCC(=O)NC1=O)C2=O` (configuration not stated), the figure is 96 to 98 °C; as for `CC(O)c1cc2c(s1)C(C)(C)CCC2(C)C` (configuration not stated), 53 to 55 °C.
`CCCN(CC)S(=O)(=O)NC(=S)N1CC(c2ccccc2)C(c2ccc(Cl)cc2)=N1` (configuration not stated): the melting point was 144 to 146 °C.
Then `CCCCCCCNC(=O)N(C)c1cccc(-c2ccc(CCC(=O)O)cc2OC)c1`, with 100 to 101 °C; and `COc1ccc(C(=O)Nc2ccccc2)cc1Nc1ccc(F)cc1`, with 178 to 180 °C; and `Cc1cc(S(=O)(=O)Nc2onc(C)c2Br)c(C)s1`, with 77 to 80 °C.
In turn, `O=C(/C=C/c1cccnc1)NCCc1cccc(O)c1` had a melting point of 163 to 164 °C.
Compound `COc1cc(NC(=O)OC(C)(C)C)c(NC(=O)CC(=O)c2cccc(-n3ccnc3C)c2)cc1-c1ccccc1F` displayed a melting point of 83 to 86 °C.
As for `COC(=O)Oc1ccc(OC)cc1`, the figure is 33 to 34 °C; as for `Cc1ccc(C(=O)CCC(=O)c2ccccc2)s1`, 122 °C; as for `CCCCCS(=O)(=O)NC(=O)c1ccc2nc(C)n(Cc3ccc(N(C)C(=O)C(C)(C)C)cc3Cl)c2n1`, 207 to 208 °C.
As for `CC(C)(C)CNc1nc(Cl)cc(Cl)n1`, the figure is 63 to 66 °C.
Consider `CCOC(=O)c1c(-c2cnccn2)ssc1=S`, for which the melting point came to 125 °C.
The compound `Clc1ccc2c(c1)C(c1ccccc1Cl)NCc1c[nH]cc1-2` (configuration not stated) returned a melting point of 211 to 212 °C.
Then `O=C(O)c1c2c(nc3ccc(F)cc13)-c1ccc(-c3ccccc3F)cc1CC2`, with over 300 °C.
Then `CCCNC(=O)CC1(C)Cc2c(C)c(N3CCN(c4ccc(OC)cc4)CC3)c(C)c(C)c2O1` (configuration not stated), with 135 to 138 °C; and `O=c1[nH]cc(Cc2ccccc2)cc1Br`, with 151 to 152 °C; and `Cc1oc(-c2ccc(C(F)(F)F)cc2)nc1-c1ccc(-c2cc(Br)c(OC(Cc3ccccc3)C(=O)O)c(Br)c2)cc1` (configuration not stated), with 241 to 243 °C.
As to `CCCc1c(OCCCS(=O)(=O)c2ccc(CC(=O)OC)cn2)ccc(C(C)=O)c1O`, the melting point was 124 to 126 °C.
Then `COc1ccc2c3c([nH]c2c1)CCC(N(C)C)C3` (configuration not stated), with 100 to 105 °C.
As for `COC(C(=O)O)c1ccc2nc(-c3ccc(Cl)cc3)oc2c1` (configuration not stated), the figure is 164 to 166 °C.
In the case of `CC(C)C(c1ccc(CC(N)=O)cc1)n1ccnc1` (configuration not stated), the melting point came out at 244 °C.
Then `CC(C)c1ccc(-n2nnc(-c3ccc(O)cc3)n2)cc1`, with 158 to 160 °C.
Then `Cc1c(Br)sc2cc(C(=O)CBr)ccc12`, with 126 to 128 °C; and `Cc1ccc(N)c(C(=O)Nc2cccnc2Cl)c1`, with 187 to 190 °C; and `CCOC(=O)C1=C(CO)NC(SC)=NC1c1ccccc1SC` (configuration not stated), with 151 to 153 °C.
